Experimental data published in patent US10208089B2, “Modulation of complement activity” (priority 2014, dated 2019).
pIC50: −log10 of the molar value. Starred links: 1 amine or outer side, 2 acyl side, 3 side chain; linkers in the order of their positions; H or OH if unused. Positions of bridges follow the written chain, without caps; N, C: chain ends. Non-standard residues stand in square brackets, D forms with d. Residues, ends and D or L forms follow the SMILES beside them. Ala(1H-tetrazol-5-yl) = N[C@@H](Cc1nnn[nH]1)C(=O)O; Trp(7-aza) = N[C@@H](Cc1c[nH]c2ncccc12)C(=O)O; mXylylene = c1cc(C[*:1])cc(C[*:2])c1; dPhg = N[C@@H](C(=O)O)c1ccccc1; Chg = N[C@H](C(=O)O)C1CCCCC1; Phg = N[C@H](C(=O)O)c1ccccc1; Tle = CC(C)(C)[C@H](N)C(=O)O; Nva = CCC[C@H](N)C(=O)O

Molecular target: C5 (Homo sapiens, UniProt P01031)
Assay: Human hemolysis assay (RBC lysis assay using complete human sera)
Format: cell-based
Parameters: with complete human sera (Complement Technology, Tyler Tex.) and polypeptides; tissue Complement Technology, Tyler Tex; host or cells: complete human serum
Conditions: inhibition of lysis of antibody-sensitized sheep erythrocytes, complete human sera

Sequence of C5 (P01031 19-1676): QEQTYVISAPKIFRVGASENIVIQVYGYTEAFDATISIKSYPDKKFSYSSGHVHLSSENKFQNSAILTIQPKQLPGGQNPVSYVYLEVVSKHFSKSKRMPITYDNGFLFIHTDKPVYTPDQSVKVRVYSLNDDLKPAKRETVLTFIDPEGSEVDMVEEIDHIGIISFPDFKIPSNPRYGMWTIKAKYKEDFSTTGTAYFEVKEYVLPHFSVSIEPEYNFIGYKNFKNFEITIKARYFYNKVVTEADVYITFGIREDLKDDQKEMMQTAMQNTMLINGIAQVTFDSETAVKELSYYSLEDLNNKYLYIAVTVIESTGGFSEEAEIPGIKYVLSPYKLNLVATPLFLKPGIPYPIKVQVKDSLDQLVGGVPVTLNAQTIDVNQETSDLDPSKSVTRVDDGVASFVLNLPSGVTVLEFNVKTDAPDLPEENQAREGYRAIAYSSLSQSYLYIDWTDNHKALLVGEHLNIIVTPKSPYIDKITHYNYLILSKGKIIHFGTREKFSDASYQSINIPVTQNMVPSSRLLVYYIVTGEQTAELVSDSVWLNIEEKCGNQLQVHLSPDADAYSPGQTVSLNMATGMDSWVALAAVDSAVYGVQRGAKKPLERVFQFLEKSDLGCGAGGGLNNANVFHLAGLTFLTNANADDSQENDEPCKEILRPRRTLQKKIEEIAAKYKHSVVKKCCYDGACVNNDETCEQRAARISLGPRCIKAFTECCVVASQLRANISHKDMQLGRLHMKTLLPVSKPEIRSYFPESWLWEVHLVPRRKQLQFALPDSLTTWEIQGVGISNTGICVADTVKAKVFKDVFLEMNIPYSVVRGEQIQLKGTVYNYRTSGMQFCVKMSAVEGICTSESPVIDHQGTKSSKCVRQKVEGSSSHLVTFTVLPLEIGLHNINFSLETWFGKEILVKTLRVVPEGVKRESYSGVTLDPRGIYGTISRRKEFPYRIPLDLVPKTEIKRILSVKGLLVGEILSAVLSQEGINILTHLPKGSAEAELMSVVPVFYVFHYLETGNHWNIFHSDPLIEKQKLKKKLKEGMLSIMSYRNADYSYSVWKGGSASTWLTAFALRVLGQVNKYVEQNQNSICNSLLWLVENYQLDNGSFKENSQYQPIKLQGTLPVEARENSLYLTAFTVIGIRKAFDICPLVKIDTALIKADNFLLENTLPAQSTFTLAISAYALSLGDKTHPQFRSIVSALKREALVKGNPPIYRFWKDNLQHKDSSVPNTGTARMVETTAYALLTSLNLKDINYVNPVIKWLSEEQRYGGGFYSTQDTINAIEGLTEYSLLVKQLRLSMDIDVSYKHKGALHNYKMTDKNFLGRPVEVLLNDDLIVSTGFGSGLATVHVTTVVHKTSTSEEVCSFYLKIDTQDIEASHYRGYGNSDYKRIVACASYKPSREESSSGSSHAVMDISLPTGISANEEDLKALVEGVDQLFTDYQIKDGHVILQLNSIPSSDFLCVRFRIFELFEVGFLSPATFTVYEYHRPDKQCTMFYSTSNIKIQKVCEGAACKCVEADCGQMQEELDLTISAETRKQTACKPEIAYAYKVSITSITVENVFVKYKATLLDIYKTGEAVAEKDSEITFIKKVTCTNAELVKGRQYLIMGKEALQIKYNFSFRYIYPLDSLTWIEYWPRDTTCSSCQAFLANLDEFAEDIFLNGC

Compound `CCC[C@H](NC(=O)[C@H](NC(=O)[C@@H]1CCCN1C(=O)[C@H](Cc1ccc(O)cc1)NC(=O)[C@H](CCC(=O)O)NC(=O)[C@H](Cc1c[nH]c2ncccc12)NC(=O)[C@H](Cc1ccc(O)cc1)NC(=O)[C@@H](NC(=O)[C@H](CC(=O)O)NC(=O)[C@@H]1CSCc2cccc(c2)CSC[C@H](NC(C)=O)C(=O)N[C@@H](C(C)C)C(=O)N[C@@H](C)C(=O)N[C@@H](CCCNC(=N)N)C(=O)N[C@@H](Cc2ccccc2)C(=O)N1)C(C)(C)C)c1ccccc1)C(N)=O` [Compound R3151, [mXylyl(1,6)]Ac-C-V-A-R-F-C-D-Tbg-Y-azaTrp-E-Y-P-(D-Phg)-Nvl-NH2] (Ac-CVARFCD[Tle]Y[Trp(7-aza)]EYP[dPhg][Nva]-NH2; linker 1-6 via mXylylene) has a pIC50 of 6.78.

Work on `CCC[C@H](NC(=O)[C@@H](NC(=O)[C@@H]1CCCN1C(=O)[C@H](Cc1ccc(O)cc1)NC(=O)[C@H](CCC(=O)O)NC(=O)[C@H](Cc1c[nH]c2ncccc12)NC(=O)[C@H](Cc1ccc(O)cc1)NC(=O)[C@@H](NC(=O)[C@H](CC(=O)O)NC(=O)[C@@H]1CSCc2cccc(c2)CSC[C@H](NC(C)=O)C(=O)N[C@@H](C(C)C)C(=O)N[C@@H](CCC(=O)O)C(=O)N[C@@H](C)C(=O)N[C@@H](Cc2ccccc2)C(=O)N1)C(C)(C)C)c1ccccc1)C(N)=O` [Compound R3153, [mXylyl(1,6)]Ac-C-V-E-A-F-C-D-Tba-Y-azaTrp-E-Y-P-Phg-Nvl-NH2] (Ac-CVEAFCD[Tle]Y[Trp(7-aza)]EYP[Phg][Nva]-NH2; linker 1-6 via mXylylene) yielded a pIC50 of 6.76.

`CCC[C@H](NC(=O)[C@H](NC(=O)[C@@H]1CCCN1C(=O)[C@H](Cc1ccc(O)cc1)NC(=O)[C@H](CCC(=O)O)NC(=O)[C@H](Cc1c[nH]c2ncccc12)NC(=O)[C@H](Cc1ccc(O)cc1)NC(=O)[C@@H](NC(=O)[C@H](CC(=O)O)NC(=O)[C@@H]1CSCc2cccc(c2)CSC[C@H](NC(C)=O)C(=O)N[C@@H](C(C)C)C(=O)N[C@@H](CCC(=O)O)C(=O)N[C@@H](C)C(=O)N[C@@H](Cc2ccccc2)C(=O)N1)C(C)(C)C)c1ccccc1)C(N)=O` [Compound R3154, [mXylyl(1,6)]Ac-C-V-E-A-F-C-D-Tbg-Y-azaTrp-E-Y-P-(D-Phg)-Nvl-NH2] (Ac-CVEAFCD[Tle]Y[Trp(7-aza)]EYP[dPhg][Nva]-NH2; linker 1-6 via mXylylene) gave a pIC50 of 6.23.

Work on `CCC[C@H](NC(=O)[C@@H](NC(=O)[C@@H]1CCCN1C(=O)[C@H](Cc1ccc(O)cc1)NC(=O)[C@H](CCC(=O)O)NC(=O)[C@H](Cc1c[nH]c2ncccc12)NC(=O)[C@H](Cc1ccc(O)cc1)NC(=O)[C@@H](NC(=O)[C@H](CC(=O)O)NC(=O)[C@@H]1CSCc2cccc(c2)CSC[C@H](NC(C)=O)C(=O)N[C@@H](C(C)C)C(=O)N[C@@H](CCC(=O)O)C(=O)N[C@@H](CCCNC(=N)N)C(=O)N[C@@H](C)C(=O)N1)C(C)(C)C)c1ccccc1)C(N)=O` [Compound R3155, [mXylyl(1,6)]Ac-C-V-E-R-A-C-D-Tbg-Y-azaTrp-E-Y-P-Phg-Nvl-NH2] (Ac-CVERACD[Tle]Y[Trp(7-aza)]EYP[Phg][Nva]-NH2; linker 1-6 via mXylylene) yielded a pIC50 of 5.82.

`CCC[C@H](NC(=O)[C@H](NC(=O)[C@@H]1CCCN1C(=O)[C@H](Cc1ccc(O)cc1)NC(=O)[C@H](CCC(=O)O)NC(=O)[C@H](Cc1c[nH]c2ncccc12)NC(=O)[C@H](Cc1ccc(O)cc1)NC(=O)[C@@H](NC(=O)[C@H](CC(=O)O)NC(=O)[C@@H]1CSCc2cccc(c2)CSC[C@H](NC(C)=O)C(=O)N[C@@H](C(C)C)C(=O)N[C@@H](CCC(=O)O)C(=O)N[C@@H](CCCNC(=N)N)C(=O)N[C@@H](C)C(=O)N1)C(C)(C)C)c1ccccc1)C(N)=O` [Compound R3156, [mXylyl(1,6)]Ac-C-V-E-R-A-C-D-Tbg-Y-azaTrp-E-Y-P-(D-Phg)-Nvl-NH2] (Ac-CVERACD[Tle]Y[Trp(7-aza)]EYP[dPhg][Nva]-NH2; linker 1-6 via mXylylene) was tested, and the pIC50 was under 5.00.

`CCC[C@H](NC(=O)[C@@H](NC(=O)[C@@H]1CCCN1C(=O)[C@H](Cc1ccc(O)cc1)NC(=O)[C@H](CCC(=O)O)NC(=O)[C@H](Cc1c[nH]c2ncccc12)NC(=O)[C@H](Cc1ccc(O)cc1)NC(=O)[C@@H](NC(=O)[C@H](C)NC(=O)[C@@H]1CSCc2cccc(c2)CSC[C@H](NC(C)=O)C(=O)N[C@@H](C(C)C)C(=O)N[C@@H](CCC(=O)O)C(=O)N[C@@H](CCCNC(=N)N)C(=O)N[C@@H](Cc2ccccc2)C(=O)N1)C(C)(C)C)c1ccccc1)C(N)=O` [Compound R3157, [mXylyl(1,6)]Ac-C-V-E-R-F-C-A-Tbg-Y-azaTrp-E-Y-P-Phg-Nvl-NH2] (Ac-CVERFCA[Tle]Y[Trp(7-aza)]EYP[Phg][Nva]-NH2; linker 1-6 via mXylylene) showed a pIC50 of 7.07.

`CCC[C@H](NC(=O)[C@H](NC(=O)[C@@H]1CCCN1C(=O)[C@H](Cc1ccc(O)cc1)NC(=O)[C@H](CCC(=O)O)NC(=O)[C@H](Cc1c[nH]c2ncccc12)NC(=O)[C@H](Cc1ccc(O)cc1)NC(=O)[C@@H](NC(=O)[C@H](C)NC(=O)[C@@H]1CSCc2cccc(c2)CSC[C@H](NC(C)=O)C(=O)N[C@@H](C(C)C)C(=O)N[C@@H](CCC(=O)O)C(=O)N[C@@H](CCCNC(=N)N)C(=O)N[C@@H](Cc2ccccc2)C(=O)N1)C(C)(C)C)c1ccccc1)C(N)=O` [Compound R3158, [mXylyl(1,6)]Ac-C-V-E-R-F-C-A-Tbg-Y-azaTrp-E-Y-P-(D-Phg)-Nvl-NH2] (Ac-CVERFCA[Tle]Y[Trp(7-aza)]EYP[dPhg][Nva]-NH2; linker 1-6 via mXylylene) gave a pIC50 of 6.49.

Compound `CC(=O)N[C@H]1CSCc2cccc(c2)CSC[C@@H](C(=O)N[C@@H](CC(=O)O)C(=O)N[C@H](C(=O)N[C@@H](Cc2ccc(O)cc2)C(=O)N[C@@H](Cc2c[nH]c3ncccc23)C(=O)N[C@@H](CCC(=O)O)C(=O)N[C@@H](Cc2ccc(O)cc2)C(=O)N2CCC[C@H]2C(=O)N[C@H](C(=O)N[C@@H](CCCCN)C(N)=O)c2ccccc2)C(C)(C)C)NC(=O)[C@H](Cc2ccccc2)NC(=O)[C@H](CCCNC(=N)N)NC(=O)[C@H](CCC(=O)O)NC(=O)[C@H](C)NC1=O` [Compound R3161, [mXylyl(1,6)]Ac-C-A-E-R-F-C-D-Tbg-Y-azaTrp-E-Y-P-Phg-K-NH2] has a pIC50 of 8.15.

Work on `CC(=O)N[C@H]1CSCc2cccc(c2)CSC[C@@H](C(=O)N[C@@H](CC(=O)O)C(=O)N[C@H](C(=O)N[C@@H](Cc2ccc(O)cc2)C(=O)N[C@@H](Cc2c[nH]c3ncccc23)C(=O)N[C@@H](CCC(=O)O)C(=O)N[C@@H](Cc2ccc(O)cc2)C(=O)N2CCC[C@H]2C(=O)N[C@@H](C(=O)N[C@@H](CCCCN)C(N)=O)c2ccccc2)C(C)(C)C)NC(=O)[C@H](Cc2ccccc2)NC(=O)[C@H](CCCNC(=N)N)NC(=O)[C@H](CCC(=O)O)NC(=O)[C@H](C)NC1=O` [Compound R3162, [mXylyl(1,6)]Ac-C-A-E-R-F-C-D-Tbg-Y-azaTrp-E-Y-P-(D-Phg)-K-NH2] yielded a pIC50 of 7.78.

In the case of `CCCCCCCCCCCC(=O)NCCCC[C@H](NC(=O)[C@@H](NC(=O)[C@@H]1CCCN1C(=O)[C@H](Cc1ccc(O)cc1)NC(=O)[C@H](CCC(=O)O)NC(=O)[C@H](Cc1c[nH]c2ncccc12)NC(=O)[C@H](Cc1ccc(O)cc1)NC(=O)[C@@H](NC(=O)[C@H](CC(=O)O)NC(=O)[C@@H]1CSCc2cccc(c2)CSC[C@H](NC(C)=O)C(=O)N[C@@H](C)C(=O)N[C@@H](CCC(=O)O)C(=O)N[C@@H](CCCNC(=N)N)C(=O)N[C@@H](Cc2ccccc2)C(=O)N1)C(C)(C)C)c1ccccc1)C(N)=O` [Compound R3164, [mXylyl(1,6)]Ac-C-A-E-R-F-C-D-Tbg-Y-azaTrp-E-Y-P-Phg-(Lys-C12)-NH2], the pIC50 was 7.44.

`CCCCCCCC(=O)NCCCC[C@H](NC(=O)[C@@H](NC(=O)[C@@H]1CCCN1C(=O)[C@H](Cc1ccc(O)cc1)NC(=O)[C@H](CCC(=O)O)NC(=O)[C@H](Cc1c[nH]c2ncccc12)NC(=O)[C@H](Cc1ccc(O)cc1)NC(=O)[C@@H](NC(=O)[C@H](CC(=O)O)NC(=O)[C@@H]1CSCc2cccc(c2)CSC[C@H](NC(C)=O)C(=O)N[C@@H](C)C(=O)N[C@@H](CCC(=O)O)C(=O)N[C@@H](CCCNC(=N)N)C(=O)N[C@@H](Cc2ccccc2)C(=O)N1)C(C)(C)C)c1ccccc1)C(N)=O` [Compound R3166, [mXylyl(1,6)]Ac-C-A-E-R-F-C-D-Tbg-Y-azaTrp-E-Y-P-Phg-(Lys-C8)-NH2] showed a pIC50 of 7.76.

For `CCC[C@H](NC(=O)[C@@H](NC(=O)[C@@H]1CCCN1C(=O)[C@H](Cc1ccc(O)cc1)NC(=O)[C@H](CCC(=O)O)NC(=O)[C@H](Cc1c[nH]c2ncccc12)NC(=O)[C@H](Cc1ccc(O)cc1)NC(=O)[C@@H](NC(=O)[C@H](Cc1nnn[nH]1)NC(=O)[C@@H]1CSCc2cccc(c2)CSC[C@H](NC(C)=O)C(=O)N[C@@H](C(C)C)C(=O)N[C@@H](CCC(=O)O)C(=O)N[C@@H](CCCNC(=N)N)C(=O)N[C@@H](Cc2ccccc2)C(=O)N1)C(C)(C)C)C1CCCCC1)C(N)=O` [Compound R3168, [mXylyl(1,6)]Ac-C-V-E-R-F-C-Asp(T)-Tbg-Y-azaTrp-E-Y-P-Chg-Nvl-NH2] (Ac-CVERFC[Ala(1H-tetrazol-5-yl)][Tle]Y[Trp(7-aza)]EYP[Chg][Nva]-NH2; linker 1-6 via mXylylene), the pIC50 was 8.12.

Compound `CCC[C@H](NC(=O)[C@@H](NC(=O)[C@@H]1CCCN1C(=O)[C@H](Cc1ccc(O)cc1)NC(=O)[C@H](CCC(=O)O)NC(=O)[C@H](Cc1c[nH]c2ncccc12)NC(=O)[C@H](Cc1ccc(O)cc1)NC(=O)[C@@H](NC(=O)[C@H](CC(=O)O)N(C)C(=O)[C@@H]1CSCc2cccc(c2)CSC[C@H](NC(C)=O)C(=O)N[C@@H](C(C)C)C(=O)N[C@@H](CCC(=O)O)C(=O)N[C@@H](CCCNC(=N)N)C(=O)N[C@@H](Cc2ccccc2)C(=O)N1)C(C)(C)C)C1CCCCC1)C(N)=O` [Compound R3172, [mXylyl(1,6)]Ac-C-V-E-R-F-C-(N-Me)D-Tbg-Y-azaTrp-E-Y-P-Chg-Nvl-NH2] has a pIC50 of 7.92.
